Measurements from paper PMC11277004, “Di- and Triselenoesters—Promising Drug Candidates for the Future Therapy of Triple-Negative Breast Cancer” (International Journal of Molecular Sciences, 2024).

Experiments:
[1] = test system: human breast cancer cells MCF-7 and MDA-MB-231; design: method as in PMID 36077839; conditions: 3 µM; cited from earlier work
[2] = test system: MCF-7 breast cancer cells; assay: MTT cytotoxicity test, MCF-7; assay type: cell-based, human; conditions: Homo sapiens, MCF7; MCF-7, 24 h incubation; read-out: IC50, cell viability (MTT)
Procedure: (§1) MCF-7 and MDA-MB-231 human breast cancer cell lines, as well as MCF-10A normal human breast epithelial cells, were acquired from the American Type Culture Collection (ATCC, Manassas, VA, USA). The characteristics of the breast cancer cell lines used in this study are compared in Table 1. MCF-7 and MDA-MB-231 cells were cultured in Dulbecco’s modified Eagle’s medium (Gibco, San Diego, CA, USA), while MCF-10A cells were cultured in the mammary epithelial cell growth medium with the following supplements: BPE, hEGF, insulin, hydrocortisone, GA-1000 (Lonza, Basel, Switzerland). All media were complemented by 10% of fetal bovine serum (FBS) and 1% of the following antibiotics: penicillin and streptomycin (both Gibco, San Diego, CA, USA). The cells were maintained in an incubator that provides the optimal growth conditions for the cell culture: 5% CO2, 37 °C, and humidity in a range of 90–95%. The cells were cultured in 100 mm plates (Sarstedt, Newton, NC, USA). Subsequently, after obtaining a subconfluent cell culture, the cells were detached with 0.05% trypsin with 0.02% EDTA (Gibco, San Diego, CA, USA). […] In this study, cells that obtained 80% confluence were used. The MTT assay was used to determine the cytotoxic effects of the compounds in the study on MCF-7 and MDA-MB-231 breast cancer cells as well as MCF-10A normal human breast epithelial cells based on Carmichael’s method. […] After this time, the medium was removed, and the cell monolayer was washed with warm phosphate-buffered saline (PBS) without calcium and magnesium. In the next step, PBS and MTT solution in PBS (5 mg/mL) were added to each well to obtain a final MTT concentration of 0.5 mg/mL, and then the cells were incubated for 4 h (37 °C temperature, 5% CO2, 90–95% humidity). After the incubation period, the contents of each well were removed, 1 mL of DMSO was added to dissolve the formazan, and then the plate with the added DMSO was mixed for 5–10 min on a microplate shaker (Boeco, Hamburg, Germany). Then, 10 µL of Sorensen’s glycine buffer (a solution of 0.1 M glycine and 0.1 M sodium chloride adjusted to pH 10.5 with 0.1 M sodium hydroxide) was added. The absorbance of the obtained solution was immediately measured at a wavelength of λ = 570 nm using a Thermo Scientific Evolution 201 UV–VIS spectrophotometer (Thermo Fisher Scientific, Waltham, MA, USA). The absorbance result obtained in the control cells (without the addition of the tested compounds) was taken as 100%, while the viability of cells incubated with the tested compounds was presented as a percentage of the control value.

[3] = test system: MDA-MB-231 triple-negative breast cancer cells; assay: MTT cytotoxicity test, MDA-MB-231; assay type: cell-based, human
Procedure: as §1

[4] = test system: MCF-10A normal human breast epithelial cells; assay: MTT cytotoxicity test, MCF-10A; assay type: cell-based; conditions: Homo sapiens, 24 h incubation, read-out: IC50, cell viability (MTT)
Procedure: as §1

[5] = test system: MCF-7 breast cancer cells; assay: DNA biosynthesis assay ([3H]-thymidine incorporation), MCF-7; assay type: cell-based, human; conditions: Homo sapiens, MCF7, 24 h, read-out: IC50, DNA biosynthesis
Procedure: (§2) The study of the antiproliferative properties (intensity of [^3H]-thymidine incorporation into cell DNA) of the tested derivatives against tested cell lines (MCF-7, MDA-MB-231, MCF-10A) was performed after 24 h incubation with varied concentrations of the tested compounds in the medium (0.5–5 µM) in 6-well plates (baseline seeding density: 5 × 10^5 cells/well). After 24 h the medium was removed, the cells were washed with PBS (Corning, Kennebunk, ME, USA), and a fresh medium was added. After that, the cells were treated with 0.5 µCi of tritium-labeled thymidine (specific activity 7 Ci/mmol) by incubating them with this compound for 4 h under the same conditions as the cell culture. In the first step, the medium was removed, and the cell monolayer was washed twice with 1 mL of 0.05 M Tris-HCl buffer pH 7.4 containing 0.11 M NaCl. To denature proteins, the cells were washed twice with 1 mL of 5% trichloroacetic acid (TCA) solution. Finally, cell lysis was performed by adding 1 mL of 0.1 M sodium hydroxide (NaOH) solution containing 1% sodium dodecyl sulfate (SDS) to each well. After five minutes, the obtained cell lysates were transferred to scintillation vials with 2 mL of scintillation fluid added to them beforehand. Radioactivity was measured using the Scintillation Counter 1900 TR, TRI-CARB (Packard, Perkin Elmer, Inc., San Jose, CA, USA). The intensity of DNA biosynthesis in the analyzed cells was expressed in terms of dpm/well. The result of the radioactivity measurement in the control cells (without the addition of tested compounds) was taken as 100%, while the values of cells incubated with the tested compounds were presented as a percentage of the control value.

[6] = test system: MDA-MB-231 triple-negative breast cancer cells; assay: DNA biosynthesis assay ([3H]-thymidine incorporation), MDA-MB-231; assay type: cell-based, human; conditions: Homo sapiens, MDA-MB-231, 24 h, read-out: IC50, DNA biosynthesis
Procedure: as §2

[7] = test system: MCF-10A normal human breast epithelial cells; assay: DNA biosynthesis assay ([3H]-thymidine incorporation), MCF-10A; assay type: cell-based; conditions: Homo sapiens, 24 h, read-out: IC50, DNA biosynthesis
Procedure: as §2

[8] = test system: MCF-7, MDA-MB-231 and MCF-10A cells; assay: Viability (MTT) and DNA biosynthesis, summary statements over the tested cell lines; assay type: cell-based, human; conditions: DNA biosynthesis, vs EDAG-1 and EDAG-8
Procedure: The MTT assay was used to determine the cytotoxic effects of the compounds in the study on MCF-7 and MDA-MB-231 breast cancer cells as well as MCF-10A normal human breast epithelial cells based on Carmichael’s method. All cultured cell lines were treated with varied concentrations of the tested compounds in the medium (0.5–5 µM) and incubated for 24 h in an incubator providing optimal conditions for cell culture growth (37 °C temperature, 5% CO2, and 90–95% humidity) in 6-well plates (baseline seeding density: 5 × 10^5 cells/well). After this time, the medium was removed, and the cell monolayer was washed with warm phosphate-buffered saline (PBS) without calcium and magnesium. In the next step, PBS and MTT solution in PBS (5 mg/mL) were added to each well to obtain a final MTT concentration of 0.5 mg/mL, and then the cells were incubated for 4 h (37 °C temperature, 5% CO2, 90–95% humidity). After the incubation period, the contents of each well were removed, 1 mL of DMSO was added to dissolve the formazan, and then the plate with the added DMSO was mixed for 5–10 min on a microplate shaker (Boeco, Hamburg, Germany). Then, 10 µL of Sorensen’s glycine buffer (a solution of 0.1 M glycine and 0.1 M sodium chloride adjusted to pH 10.5 with 0.1 M sodium hydroxide) was added. The absorbance of the obtained solution was immediately measured at a wavelength of λ = 570 nm using a Thermo Scientific Evolution 201 UV–VIS spectrophotometer (Thermo Fisher Scientific, Waltham, MA, USA). The absorbance result obtained in the control cells (without the addition of the tested compounds) was taken as 100%, while the viability of cells incubated with the tested compounds was presented as a percentage of the control value.
The study of the antiproliferative properties (intensity of [^3H]-thymidine incorporation into cell DNA) of the tested derivatives against tested cell lines (MCF-7, MDA-MB-231, MCF-10A) was performed after 24 h incubation with varied concentrations of the tested compounds in the medium (0.5–5 µM) in 6-well plates (baseline seeding density: 5 × 10^5 cells/well). After 24 h the medium was removed, the cells were washed with PBS (Corning, Kennebunk, ME, USA), and a fresh medium was added. […] Radioactivity was measured using the Scintillation Counter 1900 TR, TRI-CARB (Packard, Perkin Elmer, Inc., San Jose, CA, USA). The intensity of DNA biosynthesis in the analyzed cells was expressed in terms of dpm/well. The result of the radioactivity measurement in the control cells (without the addition of tested compounds) was taken as 100%, while the values of cells incubated with the tested compounds were presented as a percentage of the control value.

Structure (SMILES) | cells in which the apoptotic process was triggered [1] | IC50 [2] [nM] | IC50 ([3]; Homo sapiens, MDA-MB-231, 24 h incubation, read-out: IC50, cell viability (MTT)) [µM] | IC50 [4] [µM] | IC50 [5] [nM] | IC50 [6] [nM] | IC50 [7] [nM] | fold weaker antiproliferative activity than the most active derivatives [8] | fold weaker cytotoxic activity than the most active compounds ([3]; MDA-MB-231, MTT, vs EDAG-8/EDAG-1) [fold]
CC(=O)C[Se]C(=O)c1ccc(Cl)cc1 [EDA-71] | over 50% |  |  |  |  |  |  |  | 
N#CC[Se]C(=O)c1ccc(C(=O)[Se]CC#N)cc1 [EDAG-7, Se,Se-bis(cyanomethyl) benzene-1,4-bis(carboselenoate)] |  | 3150 ± 210 | > 5 | 4.64 ± 0.24 | 1810 ± 110 | 2040 ± 160 | 2330 ± 20 | 2–3 fold | 
N#CC[Se]C(=O)c1cc(C(=O)[Se]CC#N)cc(C(=O)[Se]CC#N)c1 [EDAG-10, Se,Se,Se-tris-(cyanomethyl) benzene-1,3,5-tris-(carboxyselenoate)] |  | 2600 ± 30 |  | 4.18 ± 0.29 | 1950 ± 110 | 1560 ± 80 | 1600 ± 50 | 2–3 fold | ~4
